# Measured values taken from article PMC12892976, “Alkylation-based optimization of antifungal FPPS inhibitors yields a potent, broad-spectrum lipophilic zoledronate derivative” (mBio, 2025).
# Read-outs that look alike come from different tables or passages of the source.
# Tests used:
# Candida glabrata [1] = assay: checkerboard drug interaction (FICI, MICc); assay type: cell-based;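 also: simplified diagonal checkerboard screen pairing antifungals with FPPS inhibitors, FICI calculated under the Loewe additivity model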
# Method: (§1) Drug interactions between antifungals and FPPS inhibitors were investigated using a simplified checkerboard diagonal screening method ([45]). […] FICIs were determined according to the Loewe additivity model ([17]).
# Cryptococcus neoformans = assay: checkerboard drug interaction (FICI, MICc); assay type: cell-based; conditions: for INH FD (MIC-MICc fold decrease): fold decrease of inhibitor MIC;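 as to all read-outs here: antifungal plus FPPS inhibitor pairs tested against Cryptococcus neoformans by simplified diagonal checkerboard screening, FICI computed under the Loewe additivity model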
# Method: as §1
# eight fungal species [2] = assay: MIC/MFC summary across the eight fungal species of Table 1; assay type: cell-based
# Method: The antifungal activity of these compounds was evaluated according to CLSI guidelines ([16]).
# Trichophyton rubrum [3] = assay: checkerboard drug interaction (FICI, MICc); assay type: cell-based;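 also: simplified diagonal checkerboard screen pairing azole antifungals with FPPS inhibitors, FICI calculated under the Loewe additivity model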
# Method: as §1
# eight fungal species [4] = assay: checkerboard interaction with azoles, summary across the eight species; assay type: cell-based
# Source text: Synergy between lipophilic FPPS inhibitors and azole antifungals was investigated by determining the fractional inhibitory concentration index (FICI) (Fig. 2; Table S1 Fig. S1) ([17]). […]. Derivatives PLA9 and 11, and PDA9, 11, and 12 antagonized azoles in C. albicans, C. neoformans, and C. deuterogattii, yet were largely synergistic in C. glabrata and S. cerevisiae. […].
# Trichophyton rubrum [5] = assay: MIC/MFC broth microdilution (CLSI)
# Method: (§2) Antifungal susceptibility was determined by broth microdilution according to the CLSI guidelines described in M27-Ed4 ([16]). […] MFC was determined by back-plating drug-treated cultures from MIC broths onto SDA plates. The MFC was defined as the lowest concentration from which no colonies could be cultured.
# Candida glabrata [6] = assay: MIC/MFC broth microdilution (CLSI);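 also: broth microdilution following CLSI M27-Ed4, MFC taken as the lowest drug level yielding no growth once MIC wells were subcultured on SDA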
# Method: as §2
# Saccharomyces cerevisiae = assay: checkerboard drug interaction (FICI, MICc); assay type: cell-based; design: INH MICc / INH MICc (ITR:INH) / INH MICc (KET:INH) / INH MICc (FLC:INH): unit not given beside the values; conditions: for INH FD (MIC-MICc fold decrease): fold decrease of inhibitor MIC;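 as to all read-outs here: simplified diagonal checkerboard screen pairing antifungals with FPPS inhibitors, FICI calculated under the Loewe additivity model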
# Candida albicans = assay: checkerboard drug interaction (FICI, MICc); assay type: cell-based; conditions: for INH FD (MIC-MICc fold decrease): fold decrease of inhibitor MIC;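 as to all read-outs here: antifungal plus FPPS inhibitor combinations on Candida albicans tested by a simplified diagonal checkerboard screen, with FICI calculated under the Loewe additivity model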
# Method: as §1
# [7] = C. neoformans, FLC:INH combination
# [8] = C. neoformans, ITR:INH combination
# [9] = C. neoformans, KET:INH combination
# [10] = S. cerevisiae, FLC:INH combination
# [11] = S. cerevisiae, ITR:INH combination
# [12] = S. cerevisiae, KET:INH combination
# [13] = C. albicans, FLC:INH combination
# [14] = C. albicans, ITR:INH combination
# [15] = C. albicans, KET:INH combination
smiles,measurement,setting,value
"O=P(O)(O)C(O)(Cn1ccnc1)P(=O)(O)O [ZOL, zoledronate]",INH MICc,"Candida glabrata [1]; C. glabrata, KET:INH combination, MIC of the inhibitor in combination with KET",2
same,KET FD (MIC-MICc fold decrease),"Candida glabrata [1]; C. glabrata, KET:INH combination, fold decrease of KET MIC",4
same,INH FD (MIC-MICc fold decrease),"Candida glabrata [1]; C. glabrata, KET:INH combination, fold decrease of inhibitor MIC",4
same,FICI,Candida glabrata [1]; CAS:ZOL,2.05
same,FICI,Candida glabrata [1]; FLC:ZOL,0.09
same,FICI,Candida glabrata [1]; ITR:ZOL,0.16
same,FICI,Candida glabrata [1]; KET:ZOL,0.31
same,FICI,Candida glabrata [1]; VOR:ZOL,0.38
same,bisphosphonate MICc,Candida glabrata [1]; ZOL with 5FC,1
same,bisphosphonate MICc,Candida glabrata [1]; ZOL with AMB,1
same,bisphosphonate MICc,Candida glabrata [1]; ZOL with CAS,1
same,bisphosphonate MICc,Candida glabrata [1]; ZOL with FLC,1
same,bisphosphonate MICc,Candida glabrata [1]; ZOL with ITR,1
same,bisphosphonate MICc,Candida glabrata [1]; ZOL with KET,2
same,bisphosphonate MICc,Candida glabrata [1]; ZOL with VOR,1
same,FICI,"Candida glabrata [1]; with FLC, Candida glabrata",0.09
same,FICI,"Candida glabrata [1]; with ITR, Candida glabrata",0.16
same,FICI,"Candida glabrata [1]; with KET, Candida glabrata",0.31
same,FICI,Cryptococcus neoformans; 5FC:ZOL,0.75
same,FICI,Cryptococcus neoformans; AMB:ZOL,2.25
same,FICI,Cryptococcus neoformans; [7],0.38
same,INH MICc,"Cryptococcus neoformans; C. neoformans, FLC:INH combination, MIC of the inhibitor in combination with FLC",8
same,FLC FD (MIC-MICc fold decrease),"Cryptococcus neoformans; C. neoformans, FLC:INH combination, fold decrease of FLC MIC",4
same,INH FD (MIC-MICc fold decrease),Cryptococcus neoformans; [7],8
same,FICI,Cryptococcus neoformans; [8],0.19
same,INH MICc,"Cryptococcus neoformans; C. neoformans, ITR:INH combination, MIC of the inhibitor in combination with ITR",4
same,ITR FD (MIC-MICc fold decrease),"Cryptococcus neoformans; C. neoformans, ITR:INH combination, fold decrease of ITR MIC",8
same,INH FD (MIC-MICc fold decrease),Cryptococcus neoformans; [8],16
same,FICI,Cryptococcus neoformans; [9],0.19
same,INH MICc,"Cryptococcus neoformans; C. neoformans, KET:INH combination, MIC of the inhibitor in combination with KET",4
same,KET FD (MIC-MICc fold decrease),"Cryptococcus neoformans; C. neoformans, KET:INH combination, fold decrease of KET MIC",8
same,INH FD (MIC-MICc fold decrease),Cryptococcus neoformans; [9],16
same,FICI,Cryptococcus neoformans; CAS:ZOL,≥4
same,FICI,Cryptococcus neoformans; FLC:ZOL,0.38
same,FICI,Cryptococcus neoformans; ITR:ZOL,0.19
same,FICI,Cryptococcus neoformans; KET:ZOL,0.19
same,FICI,Cryptococcus neoformans; VOR:ZOL,0.98
same,bisphosphonate MICc,Cryptococcus neoformans; ZOL with 5FC,16
same,bisphosphonate MICc,Cryptococcus neoformans; ZOL with AMB,8
same,bisphosphonate MICc,Cryptococcus neoformans; ZOL with CAS,128
same,bisphosphonate MICc,Cryptococcus neoformans; ZOL with FLC,8
same,bisphosphonate MICc,Cryptococcus neoformans; ZOL with ITR,4
same,bisphosphonate MICc,Cryptococcus neoformans; ZOL with KET,4
same,bisphosphonate MICc,Cryptococcus neoformans; ZOL with VOR,16
same,FICI,"Cryptococcus neoformans; with FLC, Cryptococcus neoformans",0.38
same,FICI,"Cryptococcus neoformans; with ITR, Cryptococcus neoformans",0.19
same,FICI,"Cryptococcus neoformans; with KET, Cryptococcus neoformans",0.19
same,Geometric mean MFC,eight fungal species [2]; across eight species,181.0 µg/mL
same,Geometric mean MIC,eight fungal species [2]; across eight species,98.7 µg/mL
same,MFC,"eight fungal species [2]; across eight species, read-out: Geometric mean MFC",181 µg/mL
same,MIC,"eight fungal species [2]; geometric mean across eight species, read-out: GM fungal MIC",98.7 µg/mL
same,MIC,eight fungal species [2]; read-out: Geometric mean MIC,98.7 µg/mL
same,FICI,Trichophyton rubrum [3]; 5FC:ZOL,2
same,FICI,Trichophyton rubrum [3]; AMB:ZOL,≥4
same,FICI,Trichophyton rubrum [3]; CAS:ZOL,0.5
same,FICI,Trichophyton rubrum [3]; FLC:ZOL,0.5
same,FICI,Trichophyton rubrum [3]; ITR:ZOL,0.75
same,FICI,Trichophyton rubrum [3]; KET:ZOL,0.38
same,FICI (FLC:INH),"Trichophyton rubrum [3]; T. rubrum, Fractional Inhibitory Concentration Index, fluconazole + inhibitor",0.5
same,FICI (ITR:INH),"Trichophyton rubrum [3]; T. rubrum, Fractional Inhibitory Concentration Index, itraconazole + inhibitor",0.75
same,FICI (KET:INH),"Trichophyton rubrum [3]; T. rubrum, Fractional Inhibitory Concentration Index, ketoconazole + inhibitor",0.38
same,INH MICc (FLC:INH),"Trichophyton rubrum [3]; T. rubrum, MIC of the inhibitor in combination with fluconazole",32
same,INH MICc (ITR:INH),"Trichophyton rubrum [3]; T. rubrum, MIC of the inhibitor in combination with itraconazole",64
same,INH MICc (KET:INH),"Trichophyton rubrum [3]; T. rubrum, MIC of the inhibitor in combination with ketoconazole",16
same,FLC FD (FLC:INH),"Trichophyton rubrum [3]; T. rubrum, MIC-MICc fold decrease of fluconazole, negative = increase",4
same,ITR FD (ITR:INH),"Trichophyton rubrum [3]; T. rubrum, MIC-MICc fold decrease of itraconazole, negative = increase",4
same,KET FD (KET:INH),"Trichophyton rubrum [3]; T. rubrum, MIC-MICc fold decrease of ketoconazole, negative = increase",4
same,INH FD (FLC:INH),"Trichophyton rubrum [3]; T. rubrum, MIC-MICc fold decrease of the inhibitor, with fluconazole",4
same,INH FD (ITR:INH),"Trichophyton rubrum [3]; T. rubrum, MIC-MICc fold decrease of the inhibitor, with itraconazole",2
same,INH FD (KET:INH),"Trichophyton rubrum [3]; T. rubrum, MIC-MICc fold decrease of the inhibitor, with ketoconazole",8
same,FICI,Trichophyton rubrum [3]; VOR:ZOL,0.38
same,bisphosphonate MICc,Trichophyton rubrum [3]; ZOL with 5FC,128
same,bisphosphonate MICc,Trichophyton rubrum [3]; ZOL with AMB,256
same,bisphosphonate MICc,Trichophyton rubrum [3]; ZOL with CAS,32
same,bisphosphonate MICc,Trichophyton rubrum [3]; ZOL with FLC,32
same,bisphosphonate MICc,Trichophyton rubrum [3]; ZOL with ITR,64
same,bisphosphonate MICc,Trichophyton rubrum [3]; ZOL with KET,16
same,bisphosphonate MICc,Trichophyton rubrum [3]; ZOL with VOR,16
same,FICI,"Trichophyton rubrum [3]; with ITR, Trichophyton rubrum",0.75
same,effect on azole MIC in combination,eight fungal species [4]; across all species tested,consistently reduced the MIC of the azole
same,antagonism with azole drugs,eight fungal species [4]; any of the azole drugs in any species tested,no antagonism
same,GM fungal MICc,eight fungal species [4]; geometric mean MIC in combination with azoles,14.3
same,MFC,Trichophyton rubrum [5]; Trichophyton rubrum,> 128 µg/mL
same,MIC,Trichophyton rubrum [5]; Trichophyton rubrum,128 µg/mL
same,MIC / MEC,Trichophyton rubrum [5]; Trichophyton rubrum R-218,128 µg/mL
same,MIC / MEC,Candida glabrata [6]; Candida glabrata CBS138 (ATCC 2001),8 µg/mL
same,MFC,"Candida glabrata [6]; Nakaseomyces glabratus, CBS138",32 µg/mL
same,MIC,"Candida glabrata [6]; Nakaseomyces glabratus, CBS138",8 µg/mL
same,FICI,Saccharomyces cerevisiae; 5FC:ZOL,1.25
same,FICI,Saccharomyces cerevisiae; AMB:ZOL,2.5
same,FICI,Saccharomyces cerevisiae; CAS:ZOL,1.01
same,FICI,Saccharomyces cerevisiae; FLC:ZOL,0.38
same,FICI,Saccharomyces cerevisiae; ITR:ZOL,0.5
same,FICI,Saccharomyces cerevisiae; KET:ZOL,0.25
same,FICI,Saccharomyces cerevisiae; [10],0.38
same,FLC MICc,"Saccharomyces cerevisiae; S. cerevisiae, FLC:INH combination, MIC of FLC in combination with the inhibitor",1
same,INH MICc,"Saccharomyces cerevisiae; S. cerevisiae, FLC:INH combination, MIC of the inhibitor in combination with FLC",32
same,FLC FD (MIC-MICc fold decrease),"Saccharomyces cerevisiae; S. cerevisiae, FLC:INH combination, fold decrease of FLC MIC",4
same,INH FD (MIC-MICc fold decrease),Saccharomyces cerevisiae; [10],8
same,FICI,Saccharomyces cerevisiae; [11],0.5
same,ITR MICc,"Saccharomyces cerevisiae; S. cerevisiae, ITR:INH combination, MIC of ITR in combination with the inhibitor",0.063
same,INH MICc,"Saccharomyces cerevisiae; S. cerevisiae, ITR:INH combination, MIC of the inhibitor in combination with ITR",64
same,ITR FD (MIC-MICc fold decrease),"Saccharomyces cerevisiae; S. cerevisiae, ITR:INH combination, fold decrease of ITR MIC",4
same,INH FD (MIC-MICc fold decrease),Saccharomyces cerevisiae; [11],4
same,FICI,Saccharomyces cerevisiae; [12],0.25
same,KET MICc,"Saccharomyces cerevisiae; S. cerevisiae, KET:INH combination, MIC of KET in combination with the inhibitor",0.25
same,INH MICc,"Saccharomyces cerevisiae; S. cerevisiae, KET:INH combination, MIC of the inhibitor in combination with KET",32
same,KET FD (MIC-MICc fold decrease),"Saccharomyces cerevisiae; S. cerevisiae, KET:INH combination, fold decrease of KET MIC",8
same,INH FD (MIC-MICc fold decrease),Saccharomyces cerevisiae; [12],8
same,FICI,Saccharomyces cerevisiae; VOR:ZOL,0.75
same,bisphosphonate MICc,Saccharomyces cerevisiae; ZOL with 5FC,64
same,bisphosphonate MICc,Saccharomyces cerevisiae; ZOL with AMB,128
same,bisphosphonate MICc,Saccharomyces cerevisiae; ZOL with CAS,2
same,bisphosphonate MICc,Saccharomyces cerevisiae; ZOL with FLC,32
same,bisphosphonate MICc,Saccharomyces cerevisiae; ZOL with ITR,64
same,bisphosphonate MICc,Saccharomyces cerevisiae; ZOL with KET,32
same,bisphosphonate MICc,Saccharomyces cerevisiae; ZOL with VOR,64
same,FICI,"Saccharomyces cerevisiae; with FLC, Saccharomyces cerevisiae",0.38
same,FICI,"Saccharomyces cerevisiae; with ITR, Saccharomyces cerevisiae",0.50
same,FICI,"Saccharomyces cerevisiae; with KET, Saccharomyces cerevisiae",0.25
same,FICI,Candida albicans; 5FC:ZOL,1.13
same,FICI,Candida albicans; AMB:ZOL,1.25
same,FICI,Candida albicans; [13],0.53
same,INH MICc,"Candida albicans; C. albicans, FLC:INH combination, MIC of the inhibitor in combination with FLC",8
same,FLC FD (MIC-MICc fold decrease),"Candida albicans; C. albicans, FLC:INH combination, fold decrease of FLC MIC",2
same,INH FD (MIC-MICc fold decrease),Candida albicans; [13],32
same,FICI,Candida albicans; [14],1.13
same,INH MICc,"Candida albicans; C. albicans, ITR:INH combination, MIC of the inhibitor in combination with ITR",32
same,ITR FD (MIC-MICc fold decrease),"Candida albicans; C. albicans, ITR:INH combination, fold decrease of ITR MIC",1
same,INH FD (MIC-MICc fold decrease),Candida albicans; [14],8
same,FICI,Candida albicans; [15],1.13
same,INH MICc,"Candida albicans; C. albicans, KET:INH combination, MIC of the inhibitor in combination with KET",32
same,KET FD (MIC-MICc fold decrease),"Candida albicans; C. albicans, KET:INH combination, fold decrease of KET MIC",1
same,INH FD (MIC-MICc fold decrease),Candida albicans; [15],8
same,FICI,Candida albicans; CAS:ZOL,2.17
same,FICI,Candida albicans; FLC:ZOL,0.53
same,FICI,Candida albicans; ITR:ZOL,1.13
same,FICI,Candida albicans; KET:ZOL,1.13
same,FICI,Candida albicans; VOR:ZOL,1.46
same,bisphosphonate MICc,Candida albicans; ZOL with 5FC,16
same,bisphosphonate MICc,Candida albicans; ZOL with AMB,32
same,bisphosphonate MICc,Candida albicans; ZOL with CAS,32
same,bisphosphonate MICc,Candida albicans; ZOL with FLC,8
same,bisphosphonate MICc,Candida albicans; ZOL with ITR,32
same,bisphosphonate MICc,Candida albicans; ZOL with KET,32
same,bisphosphonate MICc,Candida albicans; ZOL with VOR,64
same,FICI,"Candida albicans; with FLC, Candida albicans",0.53
same,FICI,"Candida albicans; with ITR, Candida albicans",1.13
same,FICI,"Candida albicans; with KET, Candida albicans",1.13
